Test results published in patent US4210639A, “5'-Deoxy-5'-(isobutylthio)-3-deazaadenosine, method of making same and its antiviral effect on Rous sarcoma virus and Gross murine leukemia virus” (The United States of America as represented by the …, priority 1978, dated 1980).
Entries after “also recorded” stand apart in the source; their conditions may differ. Where two headings read alike, the source gives them in different places.

Tests used:
[1] = target: T1, AdoHcy hydrolase (Bos taurus, UniProt Q3MHL4); assay: Inhibition of AdoHcy hydrolase from cow liver; format: biochemical; settings: for IC50: read-out: I50
T1 construct: AdoHcy hydrolase from cow liver; from tissue; host or cells: cow liver
T1 sequence (Q3MHL4 2-432 limits assumed): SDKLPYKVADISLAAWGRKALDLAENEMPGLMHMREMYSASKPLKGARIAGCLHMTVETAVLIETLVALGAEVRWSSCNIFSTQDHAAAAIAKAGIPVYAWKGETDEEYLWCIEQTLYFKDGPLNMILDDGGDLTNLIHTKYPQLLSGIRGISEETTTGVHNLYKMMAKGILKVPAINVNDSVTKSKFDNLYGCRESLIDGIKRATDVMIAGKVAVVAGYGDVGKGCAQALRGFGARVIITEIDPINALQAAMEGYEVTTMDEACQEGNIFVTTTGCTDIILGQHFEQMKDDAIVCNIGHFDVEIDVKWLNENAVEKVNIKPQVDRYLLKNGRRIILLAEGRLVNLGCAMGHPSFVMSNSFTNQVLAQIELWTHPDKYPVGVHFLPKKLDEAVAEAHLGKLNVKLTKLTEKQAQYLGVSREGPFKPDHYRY

[2] = system: RSV-BH; assay: Focus formation (oncogenic transformation) by RSV-BH in chick embryo cells; format: cell-based; settings: for inhibition at 100 µM / inhibition at 30 µM: Gallus gallus
Procedure: Additionally, the ability of these compounds to inhibit the oncogenic transformation of chick embryo cells induced by RSV-BH was examined.
*Compounds were added 18 h after infection and foci were counted 7 days

[3] = system: chick embryo cells; assay: Effects on host chick embryo cells; format: cell-based; settings: 0.1 mM
[4] = system: oncogenic virus; assay: Oncogenic virus-induced malignant transformation / viral replication, general statements; format: cell-based
[5] = system: AdoHcy hydrolase; assay: Hydrolysis of the compound by AdoHcy hydrolase; format: biochemical
[6] = system: Gross MLV; assay: Replication of Gross MLV in mouse embryo cells (UV-XC plaque assay); format: cell-based, Swiss mouse
Procedure: (§1) Each point represents the mean number of UV-XC plaques per culture (triplicate assays)± the standarad deviation. The drug was dissolved in DMSO at the time of virus inoculation and was present throughout the incubation period. (B) Effect of treatment on the multiplication of host cells after 4 days exposure to drug. Each point represents the mean number of viable mouse embryo cells per culture ± the standard deviation. The initial number of cells plated was 3.5×10^5 cells.
(§2) The ability of 5'-deoxy-5'-(isobutylthio)-3-deazaadenosine to inhibit replication of Gross MLV in mouse embryo cells was tested. […] The selectivity ratio (i.e., the highest noncytotoxic concentration of drug over the lowest effective concentration of drug) was about 10.

[7] = system: mouse embryo cells; assay: Multiplication/cytotoxicity of mouse embryo host cells after 4 days exposure; format: cell-based, Swiss mouse; settings: 30 to 100 μM
Procedure: as §1, §2

[8] = system: cells; assay: Tolerance by cells; format: cell-based
[9] = system: methyltransferases; settings: AdoMet-utilizing methyltransferases; cited from earlier work
[10] = 0.03 mM, added 18 h after infection, counted 7 days later
[11] = 0.1 mM, added 18 h after infection, counted 7 days later
[12] = 168 h, read-out: Reduction of focus formation in RSV-BH infected cells
[13] = 0.1 mM, added 18 h after infection, counted 7 days later, read-out: % Inhibition of focus formation
[14] = AdoHcy hydrolase from cow liver
[15] = non-competitive inhibition of AdoHcy hydrolase

| SMILES | Inhibition of AdoHcy hydrolase (in words) [1] | Type of inhibition of AdoHcy hydrolase [1] | No. of Foci [2, 10] | No. of Foci [2, 11] | inhibition at 30 µM [2, 10] [%] | inhibition at 100 µM [2, 13] [%] | Effect on focus formation / RSV activity (in words) [2] | IC50 [1, 14] [µM] | other results |
| --- | --- | --- | --- | --- | --- | --- | --- | --- | --- |
| Nc1nccc2c1ncn2[C@@H]1O[C@H](CO)[C@@H](O)[C@H]1O [3-Deazaadenosine, 4-amino-1-β-D-ribofuranosyl [4,5-c]pyridine] | most potent inhibitor of AdoHcy hydrolase | competitive inhibitor | 106 | 17 | 68 | 95 | – | – | IC50 ([1]; AdoHcy hydrolase): 8 µM; Ki ([1]; competitive inhibition of AdoHcy hydrolase): 3 µM; Potency relative to 5'-deoxy-5'-S-isobutyl-adenosine as inhibitor of AdoHcy hydrolase ([1]; nearly 100-fold more potent than 5'-deoxy-5'-S-isobutyl-adenosine): ~100 fold; Effect on oncogenic transformation induced by Rous sarcoma virus and on its infectivity [2]: powerful, although reversible, effect; Sensitivity to drug by phase of virus replication [2]: maximal during the phase of virus replication which required the synthesis of viral mRNA and protein; inhibition at 100 µM [2, 12]: 95%; Effects on the host cells [3]: without noticeable effects on the host cells; Ability to inhibit viral replication, compared between the two compounds [4]: almost equal |
| Nc1nccc2c1ncn2[C@@H]1O[C@H](CSCC[C@H](N)C(=O)O)[C@@H](O)[C@H]1O [3-Deazaadenosylhomocysteine] | – | – | 330 | 276 | 0 | 16 | Neither 3-deaza-AdoHcy nor 9-[5'-deoxy-5'-(methylthio)- β-D-arabinofuranosyl]adenine had any significant effect on focus formation | – | – |
| CC(C)CSC[C@H]1O[C@@H](n2cnc3c(N)nccc32)[C@H](O)[C@@H]1O [5'-Deoxy-5'-(isobutylthio)-3-deazaadenosine] | potent inhibitors of AdoHcy hydrolase; also recorded: good activity | non-competitive inhibitor | 93 | 3 | 72 | 99 | good antiviral; also recorded: just as effective as 3-deazaadenosine itself; also recorded: has shown activity | 280 | Type of inhibition of AdoHcy hydrolase ([1]; listed as 5'-deoxy-(isobutylthio)-3-deazaadenosine): non-competitive; Ki relative to the Ki of 3-deazaadenosine ([1]; times higher than Ki of 3-deazaadenosine): about 100 times; Hydrolysis by AdoHcy hydrolase [5]: not to be hydrolyzed; inhibition at 100 µM [2, 12]: 95%; Effects on the host cells [3]: without noticeable effects on the host cells; inhibition at 3 µM ([6]; 3 μM, Gross MLV in mouse embryo cells, read-out: Inhibition of plaque formation in the indicator XC cells): 85%; Inhibition of virus replication (in words) ([6]; 30 to 100 μM, Gross MLV in mouse embryo cells): Complete inhibition; Selectivity ratio (highest noncytotoxic concentration over lowest effective concentration) ([6]; Gross MLV in mouse embryo cells): about 10; Antiviral activity against Gross murine leukemia virus (in words) ([6]; mouse embryo cells): good antiviral; also recorded: has shown activity; Cytotoxicity [7]: cytotoxicity was observed; Ability to inhibit viral replication, compared between the two compounds [4]: almost equal; Reversal of malignant transformation induced by oncogenic virus [4]: will reverse the malignant transformation; Tolerance by cells [8]: well tolerated by cells |
| CC(C)CSC[C@H]1O[C@@H](n2cnc3c(N)ncnc32)[C@H](O)[C@@H]1O [5'-deoxy-5'-S-isobutyladenosine] | potent inhibitors of AdoHcy hydrolase | – | – | – | – | – | – | > 1000 | Tolerance by cells [8]: well tolerated by cells |
| CSC[C@H]1O[C@@H](n2cnc3c(N)ncnc32)[C@@H](O)[C@@H]1O [9-[5'-deoxy-5'-(methylthio)-β-D-arabinofuranosyl]-adenine] | – | non-competitive | 274 | 298 | 17 | 9 | Neither 3-deaza-AdoHcy nor 9-[5'-deoxy-5'-(methylthio)- β-D-arabinofuranosyl]adenine had any significant effect on focus formation | 430 | Ki [1, 15]: 500 µM |
| Nc1ncnc2c1ncn2[C@@H]1O[C@H](CSCC[C@H](N)C(=O)O)[C@@H](O)[C@H]1O [Adenosylhomocysteine, S-adenosyl-L-homocysteine] | – | – | – | – | – | – | – | – | Inhibition of methyltransferases [9]: inhibit competitively most of the methyltransferases; also recorded: competitive inhibitor |
| Nc1ncnc2c1ncn2[C@@H]1O[C@H](CNCCC(N)C(=O)O)[C@@H](O)[C@H]1O (stereo partly drawn) [Nγ-adenosyl-α,γ-diamino-butyric acid] | – | non-competitive | – | – | – | – | – | 140 | Ki [1, 15]: 300 µM |
